Test results published in patent publication US10441587B2, “Treatment of lung cancer with inhibitors of glutaminase” (Calithera Biosciences, Inc., priority 2015, dated 2019).

Key:
A549 (CALA) = test: Sensitivity of NSCLC cell line to CB-839; format: cell-based; details: KRAS G12S, no amp, EGFR wt, n 2
H2023 (CALA) = test: Sensitivity of NSCLC cell line to CB-839; format: cell-based; details: KRAS wt, no amp, EGFR wt, n 3
H1568 (CALA) = test: Sensitivity of NSCLC cell line to CB-839; format: cell-based; details: KRAS wt, no amp, EGFR wt, n 4
H358 (CALA) = test: Sensitivity of NSCLC cell line to CB-839; format: cell-based; details: KRAS G12C, no amp, EGFR wt, n 4
H2030 (CALA) = test: Sensitivity of NSCLC cell line to CB-839; format: cell-based; details: KRAS G12C, no amp, EGFR wt, n 3
H2122 (CALA) = test: Sensitivity of NSCLC cell line to CB-839; format: cell-based; details: KRAS G12C, no amp, EGFR wt, n 5
H2347 (CALA) = test: Sensitivity of NSCLC cell line to CB-839; format: cell-based; details: KRAS L19F, no amp, EGFR wt, n 3
H23 (CALA) = test: Sensitivity of NSCLC cell line to CB-839; format: cell-based; details: KRAS G12C, AMP, EGFR wt, n 4
H1703 (CALA) = test: Sensitivity of NSCLC cell line to CB-839; format: cell-based; details: KRAS wt, AMP, EGFR wt, n 4
HCC827 (CALA) = test: Sensitivity of NSCLC cell line to CB-839; format: cell-based; details: KRAS wt, no amp, EGFR exon 19 deletion, n 3
H441 (CALA) = test: Sensitivity of NSCLC cell line to CB-839; format: cell-based; details: KRAS G13V, AMP, EGFR wt, n 3
H661 (CALA) = test: Sensitivity of NSCLC cell line to CB-839; format: cell-based; details: KRAS wt, AMP, EGFR wt, n 3
H1437 (CALA) = test: Sensitivity of NSCLC cell line to CB-839; format: cell-based; details: KRAS wt, no amp, EGFR wt, n 3
H647 (CALA) = test: Sensitivity of NSCLC cell line to CB-839; format: cell-based; details: KRAS G13D, no amp, EGFR wt, n 3
H1650 (CALA) = test: Sensitivity of NSCLC cell line to CB-839; format: cell-based; details: KRAS wt, no amp, EGFR exon 19 deletion, n 1
H1975 (CALA) = test: Sensitivity of NSCLC cell line to CB-839; format: cell-based; details: KRAS wt, no amp, EGFR L858R/T790M, n 4
H226 (CALA) = test: Sensitivity of NSCLC cell line to CB-839; format: cell-based; details: KRAS wt, no amp, EGFR wt, n 4
H2073 (CALA) = test: Sensitivity of NSCLC cell line to CB-839; format: cell-based; details: KRAS wt, no amp, EGFR wt, n 3
H1563 (CALA) = test: Sensitivity of NSCLC cell line to CB-839; format: cell-based; details: KRAS wt, no amp, EGFR wt, n 4
H1299 (CALA) = test: Sensitivity of NSCLC cell line to CB-839; format: cell-based; details: KRAS wt, no amp, EGFR wt, n 3
H2085 (CALA) = test: Sensitivity of NSCLC cell line to CB-839; format: cell-based; details: KRAS wt, no amp, EGFR no data, n 3
H838 (CALA) = test: Sensitivity of NSCLC cell line to CB-839; format: cell-based; details: KRAS wt, AMP, EGFR wt, n 3
H1693 (CALA) = test: Sensitivity of NSCLC cell line to CB-839; format: cell-based; details: KRAS wt, no amp, EGFR wt, n 3
ChaGo-K1 (CALA) = test: Sensitivity of NSCLC cell line to CB-839; format: cell-based; details: KRAS wt, no amp, EGFR wt, n 3
[1] = test system: H2122 lung adenocarcinoma xenograft; test: Lung adenocarcinoma xenograft efficacy study; format: in vivo; details: H2122 xenograft in scid/beige mice; 200 mg/kg orally BID for 23 days; vs vehicle
Procedure: Female scid/beige mice (n═20) age 6-8 weeks were implanted subcutaneously with 1×10^7 H2122 lung adenocarcinoma cells per mouse suspended in PBS. Mice were randomized into the following two groups of n=10 mice/group: 1) Vehicle control (25% Hydroxypropyl-β-cyclodextrin) and 2) Compound 670 dosed orally at 200 mg/kg (formulated at 20 mg/mL in 25% HP-β-CD). For both groups, dosing was initiated 24 hours post-implant and continued orally BID for 23 days. Tumors were measured with calipers three times per week and tumor volume calculated using the formula tumor volume (mm^3)=(a×b^2/2) where ‘b’ is the smallest diameter and ‘a’ is the largest perpendicular diameter. **P-value<0.01 (Two-sided T-test).

[2] = test system: non-small cell lung cancer cell lines exhibiting a KRAS mutation; test: Sensitivity of non-small cell lung cancer cell lines by mutation status; format: cell-based; details: KRAS-mutant vs wild-type non-small cell lung cancer cell lines; arrested growth and/or cell death

Compound: O=C(Cc1cccc(OC(F)(F)F)c1)Nc1ccc(CCCCc2nnc(NC(=O)Cc3ccccn3)s2)nn1 [compound 670]
- Sensitivity to CB-839 average (A549 (CALA)): −68.565
- Sensitivity to CB-839 average (H2023 (CALA)): −47
- Sensitivity to CB-839 average (H1568 (CALA)): −38
- Sensitivity to CB-839 average (H358 (CALA)): −34
- Sensitivity to CB-839 average (H2030 (CALA)): −30
- Sensitivity to CB-839 average (H2122 (CALA)): −28.637
- Sensitivity to CB-839 average (H2347 (CALA)): −14
- Sensitivity to CB-839 average (H23 (CALA)): −13
- Sensitivity to CB-839 average (H1703 (CALA)): −10
- Sensitivity to CB-839 average (HCC827 (CALA)): −9
- Sensitivity to CB-839 average (H441 (CALA)): −2.67
- Sensitivity to CB-839 average (H661 (CALA)): 1.33
- Sensitivity to CB-839 average (H1437 (CALA)): 8.33
- Sensitivity to CB-839 average (H647 (CALA)): 18.267
- Sensitivity to CB-839 average (H1650 (CALA)): 19
- Sensitivity to CB-839 average (H1975 (CALA)): 22.225
- Sensitivity to CB-839 average (H226 (CALA)): 38.75
- Sensitivity to CB-839 average (H2073 (CALA)): 57.67
- Sensitivity to CB-839 average (H1563 (CALA)): 61.5
- Sensitivity to CB-839 average (H1299 (CALA)): 68.67
- Sensitivity to CB-839 average (H2085 (CALA)): 80.667
- Sensitivity to CB-839 average (H838 (CALA)): 82
- Sensitivity to CB-839 average (H1693 (CALA)): 82.67
- Sensitivity to CB-839 average (ChaGo-K1 (CALA)): 86
- tumor size [1]: reduced tumor size
- sensitivity to treatment versus wild-type cell lines [2]: more sensitive
